Measured values published in patent publication US10968178B2, “IP6K inhibitors” (TAKEDA PHARMACEUTICAL COMPANY LIMITED, priority 2017, dated 2021).

Assays:
Format in all cases: biochemical
human IP6K1 = biological target: T1, human IP6K1 (Homo sapiens, UniProt Q92551); assay: IP6K enzyme inhibitory assay (ADP-Glo Kinase Assay), human IP6K1; settings: compound concentration 0.1 μM; read-out: ADP-Glo method inhibitory rate (%) human IP6K1
T1 construct: human IP6K1 (1-441) gene; GST; made in house; host or cells: Sf-9 insect cells
In short: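 Inhibition of human IP6K1 was determined with Promega's ADP-Glo Kinase Assay in 384 well plates. Test compound diluted in assay buffer (20 mM HEPES (pH 7.5), 6 mM MgCl2, 0.01% Tween-20, 1 mM DTT) was added at 2 μL, then 2 μL of enzyme started the reaction for 60 min at room temperature. Next came 3 μL ADP-Glo solution for 30 min and 6 μL Kinase-Detection solution for 60 min. Luminescence was read on an Envision plate reader.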

human IP6K2 = biological target: T2, human IP6K2 (Homo sapiens, UniProt Q9UHH9); assay: IP6K enzyme inhibitory assay (ADP-Glo Kinase Assay), human IP6K2; settings: compound concentration 0.1 μM; read-out: ADP-Glo method inhibitory rate (%) human IP6K2
T2 construct: human IP6K2 (1-426) gene; GST; made in house; host or cells: Sf-9 insect cells
T2 sequence (Q9UHH9 1-426): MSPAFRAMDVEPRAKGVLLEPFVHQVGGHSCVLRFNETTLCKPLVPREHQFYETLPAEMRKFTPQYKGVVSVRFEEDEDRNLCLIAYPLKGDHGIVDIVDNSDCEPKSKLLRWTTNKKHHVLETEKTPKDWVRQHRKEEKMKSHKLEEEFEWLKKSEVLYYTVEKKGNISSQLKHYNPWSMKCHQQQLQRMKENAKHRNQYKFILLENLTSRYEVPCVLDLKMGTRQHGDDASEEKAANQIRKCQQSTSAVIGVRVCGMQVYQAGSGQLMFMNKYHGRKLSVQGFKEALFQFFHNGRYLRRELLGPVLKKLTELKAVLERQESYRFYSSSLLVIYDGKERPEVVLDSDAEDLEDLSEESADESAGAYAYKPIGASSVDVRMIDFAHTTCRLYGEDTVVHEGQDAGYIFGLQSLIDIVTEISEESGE
In short: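 The inhibitory activity against human IP6K2 was measured with Promega's ADP-Glo Kinase Assay in 384 well plates. Test compound, diluted in assay buffer (20 mM HEPES (pH 7.5), 6 mM MgCl2, 0.01% Tween-20, 1 mM DTT), was added at 2 μL. Adding 2 μL of diluted enzyme started the reaction, which ran for 60 min at room temperature. Next, 3 μL ADP-Glo solution (30 min) and 6 μL Kinase-Detection solution (60 min) were added, and luminescence was read on an Envision plate reader.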

human IP6K3 = biological target: T3, human IP6K3 (Homo sapiens, UniProt Q96PC2); assay: IP6K enzyme inhibitory assay (ADP-Glo Kinase Assay), human IP6K3; settings: compound concentration 0.1 μM; read-out: ADP-Glo method inhibitory rate (%) human IP6K3
T3 construct: human IP6K3 (1-410) gene; made in house; host or cells: BL21 (DE3) Escherichia coli
T3 sequence (Q96PC2 1-410): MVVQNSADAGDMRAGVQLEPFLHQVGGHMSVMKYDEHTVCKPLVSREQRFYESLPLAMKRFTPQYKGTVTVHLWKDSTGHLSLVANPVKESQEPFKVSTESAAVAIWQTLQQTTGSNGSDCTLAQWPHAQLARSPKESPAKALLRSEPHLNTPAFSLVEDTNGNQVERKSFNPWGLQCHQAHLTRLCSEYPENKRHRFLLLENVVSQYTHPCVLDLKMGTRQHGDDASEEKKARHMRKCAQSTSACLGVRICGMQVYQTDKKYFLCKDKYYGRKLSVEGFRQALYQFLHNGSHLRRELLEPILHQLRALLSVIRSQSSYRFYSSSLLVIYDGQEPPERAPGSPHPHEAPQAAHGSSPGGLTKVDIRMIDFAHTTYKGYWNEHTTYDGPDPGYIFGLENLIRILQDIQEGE
In short: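 Recombinant human IP6K (IP6K3 residues 1-410, E. coli, Ni-NTA purified) incubated with compound in 20 mM HEPES pH 7.5, 6 mM MgCl2, 0.01% Tween-20, 1 mM DTT for 60 min at room temperature. ADP formed read as luminescence by ADP-Glo.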

T1 sequence (Q92551 whole entry): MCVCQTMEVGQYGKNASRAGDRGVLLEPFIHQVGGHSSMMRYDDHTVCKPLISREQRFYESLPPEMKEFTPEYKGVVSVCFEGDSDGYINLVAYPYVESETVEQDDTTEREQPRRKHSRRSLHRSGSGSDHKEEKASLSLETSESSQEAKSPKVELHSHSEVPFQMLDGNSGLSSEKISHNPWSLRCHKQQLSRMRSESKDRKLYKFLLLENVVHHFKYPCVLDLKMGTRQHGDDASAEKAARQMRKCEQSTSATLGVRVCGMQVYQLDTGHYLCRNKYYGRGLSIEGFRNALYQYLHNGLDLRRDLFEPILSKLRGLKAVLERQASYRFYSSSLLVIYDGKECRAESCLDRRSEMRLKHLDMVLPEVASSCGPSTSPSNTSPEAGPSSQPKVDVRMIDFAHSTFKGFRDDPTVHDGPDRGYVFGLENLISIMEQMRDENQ

inhibition at 0.1 µM (human IP6K1) [%] | inhibition at 0.1 µM (human IP6K2) [%] | inhibition at 0.1 µM (human IP6K3) [%] | Structure (SMILES)
92 | 96 | 101 | O=C(O)c1ccc2c(n1)[C@]1(CC[C@@H](Oc3c(F)cc(Cl)cc3F)CC1)C(=O)N2 [Example 93, (1r,4r)-4-(4-chloro-2,6-difluorophenoxy)-2′-oxo-1′,2′-dihydrospiro[cyclohexane-1,3′-pyrrolo[3,2-b]pyridine]-5′-carboxylic acid]
88 | 91 | 96 | O=C(O)c1ccc2c(n1)[C@]1(CC[C@@H](Oc3ccc(Cl)cc3C(F)(F)F)CC1)C(=O)N2 [Example 95, (1r,4r)-4-(4-chloro-2-(trifluoromethyl)phenoxy)-2′-oxo-1′,2′-dihydrospiro[cyclohexane-1,3′-pyrrolo[3,2-b]pyridine]-5′-carboxylic acid]
81 | 90 | 97 | Cc1cccc(O[C@H]2CC[C@@]3(CC2)C(=O)Nc2ccc(C(=O)O)cc23)c1 [Example 42, (1r,4r)-4-(3-methylphenoxy)-2′-oxo-1′,2′-dihydrospiro[cyclohexane-1,3′-indole]-5′-carboxylic acid]
37 | 40 | 74 | Cc1cncc(O[C@H]2CC[C@@]3(CC2)C(=O)Nc2ccc(C(=O)O)cc23)c1 [Example 33, (1r,4r)-4-((5-methylpyridin-3-yl)oxy)-2′-oxo-1′,2′-dihydrospiro[cyclohexane-1,3′-indole]-5′-carboxylic acid]
98 | 97 | 92 | Cc1ccc(C(F)(F)F)c(O[C@H]2CC[C@@]3(CC2)C(=O)Nc2ccc(C(=O)O)cc23)n1 [Example 26]
98 | 97 | 96 | Cc1cc(O[C@H]2CC[C@@]3(CC2)C(=O)Nc2ccc(C(=O)O)cc23)ccc1F [Example 51, (1r,4r)-4-(4-fluoro-3-methylphenoxy)-2′-oxo-1′,2′-dihydrospiro[cyclohexane-1,3′-indole]-5′-carboxylic acid]
81 | 71 | 95 | O=C(O)c1ccc2c(n1)[C@]1(CC[C@H](Oc3ccccc3Cl)CC1)C(=O)N2 [Example 85, (1s,4s)-4-(2-chlorophenoxy)-2′-oxo-1′,2′-dihydrospiro[cyclohexane-1,3′-pyrrolo[3,2-b]pyridine]-5′-carboxylic acid]
100 | 97 | 100 | O=C(O)c1ccc2c(c1)[C@]1(CC[C@H](Oc3ncc(F)cc3F)CC1)C(=O)N2 [Example 13, (1s,4s)-4-((3,5-difluoropyridin-2-yl)oxy)-2′-oxo-1′,2′-dihydrospiro[cyclohexane-1,3′-indole]-5′-carboxylic acid]

Second part, the molecule before the results:

Structure (SMILES) | inhibition at 0.1 µM (human IP6K1) [%] | inhibition at 0.1 µM (human IP6K2) [%] | inhibition at 0.1 µM (human IP6K3) [%]
Cc1ccccc1O[C@H]1CC[C@@]2(CC1)C(=O)Nc1ccc(C(=O)O)cc12 [Example 41, (1r,4r)-4-(2-methylphenoxy)-2′-oxo-1′,2′-dihydrospiro[cyclohexane-1,3′-indole]-5′-carboxylic acid] | 93 | 93 | 98
O=C(O)c1ccc2c(c1)[C@]1(CC[C@@H](Oc3cccc(C(F)(F)F)c3F)CC1)C(=O)N2 [Example 77, (1r,4r)-4-(2-fluoro-3-(trifluoromethyl)phenoxy)-2′-oxo-1′,2′-dihydrospiro[cyclohexane-1,3′-indole]-5′-carboxylic acid] | 94 | 99 | 98
O=C(O)c1ccc2c(c1)[C@]1(CC[C@@H](Oc3c(Cl)cc(Cl)cc3Cl)CC1)C(=O)N2 [Example 3, (1r,4r)-2′-oxo-4-(2,4,6-trichlorophenoxy)-1′,2′-dihydrospiro[cyclohexane-1,3′-indole]-5′-carboxylic acid] | 101 | 101 | 85
N#Cc1ccc(O[C@H]2CC[C@@]3(CC2)C(=O)Nc2ccc(C(=O)O)cc23)cc1 [Example 45, (1r,4r)-4-(4-cyanophenoxy)-2′-oxo-1′,2′-dihydrospiro[cyclohexane-1,3′-indole]-5′-carboxylic acid] | 96 | 93 | 97
O=C(O)c1ccc2c(n1)[C@]1(CC[C@H](Oc3ncc(Cl)cc3F)CC1)C(=O)N2 [Example 100, (1s,4s)-4-((5-chloro-3-fluoropyridin-2-yl)oxy)-2′-oxo-1′,2′-dihydrospiro[cyclohexane-1,3′-pyrrolo[3,2-b]pyridine]-5′-carboxylic acid] | 76 | 98 | 97
O=C(O)c1ccc2c(c1)[C@]1(CC[C@@H](Oc3ccc(C(F)(F)F)nc3)CC1)C(=O)N2 [Example 6, (1r,4r)-2′-oxo-4-((6-(trifluoromethyl)pyridin-3-yl)oxy)-1′,2′-dihydrospiro[cyclohexane-1,3′-indole]-5′-carboxylic acid] | 96 | 93 | 97
O=C(O)c1ccc2c(c1)[C@]1(CC[C@@H](Oc3ccc(Cl)cc3)CC1)C(=O)N2 [Example 114, (1r,4r)-4-(4-chlorophenoxy)-2′-oxo-1′,2′-dihydrospiro[cyclohexane-1,3′-indole]-5′-carboxylic acid] | 99 | 101 | 96
Cc1ccc(O[C@H]2CC[C@@]3(CC2)C(=O)Nc2ccc(C(=O)O)cc23)nc1 [Example 20, (1r,4r)-4-((5-methylpyridin-2-yl)oxy)-2′-oxo-1′,2′-dihydrospiro[cyclohexane-1,3′-indole]-5′-carboxylic acid] | 79 | 95 | 98
COc1ccc(O[C@H]2CC[C@@]3(CC2)C(=O)Nc2ccc(C(=O)O)cc23)cc1 [Example 49, (1r,4r)-4-(4-methoxyphenxoy)-2′-oxo-1′,2′-dihydrospiro[cyclohexane-1,3′-indole]-5′-carboxylic acid] | 100 | 99 | 100
O=C(O)c1ccc2c(n1)[C@]1(CC[C@@H](Oc3ccccc3Cl)CC1)C(=O)N2 [Example 90, (1r,4r)-4-(2-chlorophenoxy)-2′-oxo-1′,2′-dihydrospiro[cyclohexane-1,3′-pyrrolo[3,2-b]pyridine]-5′-carboxylic acid] | 49 | 47 | 61
Cc1ccc(C(F)(F)F)c(O[C@H]2CC[C@@]3(CC2)C(=O)Nc2ccc(C(=O)O)nc23)n1 [Example 18, (1r,4r)-4-((6-methyl-3-(trifluoromethyl)pyridin-2-yl)oxy)-2′-oxo-1′,2′-dihydrospiro[cyclohexane-1,3′-pyrrolo[3,2-b]pyridine]-5′-carboxylic acid] | 54 | 62 | 77
N#Cc1ccc(O[C@H]2CC[C@@]3(CC2)C(=O)Nc2ccc(C(=O)O)cc23)cc1Cl [Example 73, (1r,4r)-4-(3-chloro-4-cyanophenoxy)-2′-oxo-1′,2′-dihydrospiro[cyclohexane-1,3′-indole]-5′-carboxylic acid] | 98 | 97 | 91
